Data taken from article PMC6338552 (Biochemistry, 2018).

Biological target: JNK1/TMR-JIPtide (Homo sapiens, UniProt P45983)
Type: binding
Conditions: relative to apo-JNK1

Sequence of JNK1/TMR-JIPtide (P45983 1-384 isoform P45983-2, species assumed): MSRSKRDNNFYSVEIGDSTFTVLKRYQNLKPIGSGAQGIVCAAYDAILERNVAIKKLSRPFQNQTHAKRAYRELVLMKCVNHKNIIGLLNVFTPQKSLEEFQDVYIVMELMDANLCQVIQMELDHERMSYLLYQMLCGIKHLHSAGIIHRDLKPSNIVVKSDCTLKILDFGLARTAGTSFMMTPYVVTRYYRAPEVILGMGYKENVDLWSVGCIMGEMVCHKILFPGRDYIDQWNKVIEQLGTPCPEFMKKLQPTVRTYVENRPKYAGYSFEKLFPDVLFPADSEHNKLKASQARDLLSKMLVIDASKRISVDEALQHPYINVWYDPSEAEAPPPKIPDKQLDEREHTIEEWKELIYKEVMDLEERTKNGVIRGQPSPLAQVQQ

With Nc1ncnc2c1ncn2[C@@H]1O[C@H](COP(=O)(O)OP(=O)(O)OP(=O)(O)O)[C@@H](O)[C@H]1O [ATP, adenosine triphosphate] the “effect of ATP-binding site ligand on JNK1 affinity for JIPtide (in words)” value was “two-fold more tightly”.
